Structures can show the parent of a compound that is named as a salt.

Experimental findings from patent US4786635A, “Novel benzothiazine derivatives” (Santen Pharmaceutical Co., Ltd., priority 1985, dated 1988) are described below.

The experiment relates to Isolated guinea-pig taenia coli. Briefly: calcium-antagonistic activity: inhibition of CaCl2-induced contraction of isolated guinea-pig taenia coli. The class given is cell-based. The note with it: Cavia porcellus, Ca^++ -free Krebs solution, 32° C., test compound 5 minutes before CaCl2 (3×10^-4 M), isotonic recording, read-out: IC50 (concentration of the test compound which elicited 50% inhibition of Ca^++ -induced contraction). On the procedure: (Method for mesurement of calcium-antagonistic activity) Isolated guinea-pig taenia coli was suspended in a 20 ml organ bath filled with Krebs solution at32° C. and bubbled with 5% carbon dioxide in oxygen. After equilibration, the muscle was suspended in Ca^++ -free Krebs solution. The muscle was then exposed to the test compound for 5 minutes before the addition of CaCl2, and the contraction induced by CaCl2 (3×10^-4 M) was recorded isotonically. The calcium-antagonistic activity was represented by the concentration of the test compound which elicited 50% inhibition (IC50) of Ca^++ -induced contraction.
On to `COc1ccc(OCCCCN(C)CCOc2ccc(OC)c(OC)c2)c(C2Sc3ccccc3N(C)C2=O)c1` (stereo not shown) [Compound C, 3,4-dihydro-2-[5-methoxy-2-[4-[N-methyl-N-[2-[(3,4-dimethoxy)phenoxy]ethyl]amino]butoxy]phenyl]-4-methyl-3-oxo-2H-1,4-benzothiazine oxalate], for which the IC50 was determined as 0.29 µM.

Turning to `COc1ccc(OCCCCN(C)CCOc2ccc3c(c2)OCO3)c(C2Sc3ccccc3N(C)C2=O)c1` (stereo not shown) [Compound A, 3,4-dihydro-2-[5-methoxy-2-[4-[N-methyl-N-[2-[(3,4-methylenedioxy)phenoxy]ethyl]amino]butoxy]phenyl]-4-methyl-3-oxo-2H-1,4-benzothiazine oxalate], the IC50 worked out at 0.32 µM. As to `COc1ccc(OCCCCN(C)CCc2ccc(OC)c(OC)c2)c(C2Sc3ccccc3N(C)C2=O)c1` (stereo not shown) [Reference Compound, 3,4-dihydro-2-[5-methoxy-2-[4-[N-methyl-(3,4-dimethoxy)phenetylamino]butoxy]phenyl]-4-methyl-3-oxo-2H-1,4-benzothiazine oxalate, reference compound], the IC50 came to 3.2 µM.

As to `COc1ccc(OCCCN(C)CCOc2ccc3c(c2)OCO3)c(C2Sc3ccccc3N(C)C2=O)c1` (stereo not shown) [Compound B, 3,4-dihydro-2-[5-methoxy-2-[3-[N-methyl-N-[2-[(3,4-methylenedioxy)phenoxy]ethyl]amino]propoxy]phenyl]-4-methyl-3-oxo-2H-1,4-benzothiazine fumarate], the IC50 came to 0.24 µM.
